Experimental data from publication PMC6395927, “Rufomycin Targets ClpC1 Proteolysis in Mycobacterium tuberculosis and M. abscessus” (Antimicrobial Agents and Chemotherapy, 2019).
Converted amounts (≈) assume the structure as drawn. Like-named read-outs stand apart in the source and are kept apart here. Numbered stars: 1 amine (or outer) side, 2 acyl side, 3 side chain; on linkers, the order of the positions; unused ones are H or OH. Bridge positions count the residues as written; N and C are the ends. Square brackets hold non-standard residues; d marks the D form. Peptide text beside a SMILES is read from it. * marks the point of attachment. ξ: configuration not given here. NMeTrp(4-OMe) = CN[CH](Cc1c[nH]c2cccc(OC)c12)C(=O)O; X1 = O=C(C(N[*:1])C(O)c1ccccc1)[*:2]; NMeI = CC[CH](C)[CH](NC)C(=O)O; ξNMe2Val = CC(C)C(C(=O)*)N(C)C; NMeT = CN[CH](C(=O)O)[CH](C)O; NMeL = CN[CH](CC(C)C)C(=O)O; NMeV = CN[CH](C(=O)O)C(C)C

Experiments:
[1] = tested on: M. marinum (ATCC 927); experiment: microbe, parasite or virus in culture; assay type: cell-based; details: Mycobacterium marinum, ATCC927
[2] = tested on: M. bovis (ATCC 35734); experiment: microbe, parasite or virus in culture; assay type: cell-based; details: Mycobacterium tuberculosis variant bovis, ATCC35734
[3] = tested on: J774A.1 macrophage (ATCC TIB-67); experiment: Cytotoxicity in mammalian cells (resazurin); assay type: cell-based, murine; details: Mus musculus, J774.A1; J774, 72 h
[4] = tested on: Escherichia coli (ATCC 25922); experiment: MIC against nonmycobacteria (OD570); assay type: cell-based; details: ATCC25922, E. coli
From the text: (§1) Standard compounds used were ampicillin (AMP) and gentamicin (GEN). […] Amphotericin B (AmphB) and ketoconazole (KETO) were used as standard compounds.

[5] = tested on: Staphylococcus aureus (ATCC 29213); experiment: MIC against nonmycobacteria (OD570); assay type: cell-based; details: ATCC29213, S. aureus
From the text: as §1

[6] = tested on: Candida albicans (ATCC 10231); experiment: MIC against nonmycobacteria (OD570); assay type: cell-based; details: ATCC10231, C. albicans
From the text: as §1

[7] = tested on: M. avium (ATCC 15769); experiment: microbe, parasite or virus in culture; assay type: cell-based; details: Mycobacterium avium, ATCC15769
[8] = tested on: M. abscessus (ATCC 19977); experiment: microbe, parasite or virus in culture; assay type: cell-based, Mycobacterium abscessus; details: Mycobacteroides abscessus
[9] = tested on: Vero cell (ATCC CRL-81); experiment: cells; assay type: cell-based; details: Chlorocebus sabaeus, 72 h
[10] = tested on: M. smegmatis (ATCC 700084); experiment: microbe, parasite or virus in culture; assay type: cell-based; details: Mycolicibacterium smegmatis, ATCC700084
[11] = tested on: M. kansasii (ATCC 12478); experiment: microbe, parasite or virus in culture; assay type: cell-based; details: Mycobacterium kansasii, ATCC12478
[12] = tested on: M. tuberculosis 5 global clade representatives; experiment: microbe, parasite or virus in culture; assay type: cell-based; details: Mycobacterium tuberculosis, read-out: MICs
[13] = tested on: M. tuberculosis strain H37Rv (ATCC 27294); experiment: microbe, parasite or virus in culture; assay type: cell-based, Mycobacterium tuberculosis; details: Mycobacterium tuberculosis
[14] = tested on: M. chelonae (ATCC 35752); experiment: microbe, parasite or virus in culture; assay type: cell-based, Mycobacterium chelonae; details: Mycobacteroides chelonae, ATCC35752
[15] = molecular target: ClpC1/P1/P2 complex (Mycobacterium tuberculosis, UniProt P9WPC9); assay type: biochemical, M. tuberculosis
[16] = tested on: M. tuberculosis; experiment: microbe, parasite or virus in culture; assay type: cell-based, Mycobacterium tuberculosis; details: Mycobacterium tuberculosis, read-out: MBC (minimum bactericidal concentration)
[17] = ECU, micelle formulation; cited from earlier work
[18] = tested on: nonreplicating cultures of M. tuberculosis; experiment: microbe, parasite or virus in culture; assay type: cell-based, Mycobacterium tuberculosis; details: Mycobacterium tuberculosis
[19] = molecular target: ClpC1 (Mycobacterium tuberculosis, UniProt P9WPC9); assay type: biochemical, M. tuberculosis
[20] = tested on: OVCAR 3 ovarian cancer cells; experiment: Cytotoxicity against cancer cell lines (CellTiter 96); assay type: cell-based; details: Homo sapiens; OVCAR 3, paclitaxel column
Procedure: (§2) Human melanoma cancer cells (MDA-MB-435), human breast cancer cells (MDA-MB-231), and human ovarian cancer cells (OVCAR3) were purchased from the American Type Culture Collection (Manassas, VA). Each cell line was propagated at 37°C in 5% CO2 in RPMI 1640 medium supplemented with FBS (10%), penicillin (100 U/ml), and streptomycin (100 μg/ml). Cells in log phase were harvested by trypsinization, followed by two washing cycles to remove all traces of enzyme. A total of 5,000 cells were seeded per well of a 96-well clear, flat-bottom plate (Microtest 96; Falcon) and incubated overnight (37°C in 5% CO2). Samples dissolved in DMSO were then diluted and added to the respective wells. The cells were incubated in the presence of test substance for 72 h at 37°C and evaluated for viability with a commercial absorbance assay (CellTiter 96 AQueous One Solution cell proliferation assay; Promega Corp., Madison, WI) that measured viable cells. IC50 values are expressed in micromolar values relative to the solvent (DMSO) control.

[21] = tested on: MDA-MB-231 breast cancer cells; experiment: as above; assay type: cell-based; details: Homo sapiens; MDA-MB-231, paclitaxel column
Procedure: as §2

[22] = tested on: MDA-MB-435 melanoma cells; experiment: as above; assay type: cell-based; details: Homo sapiens; MDA-MB-435, paclitaxel column
Procedure: as §2

[23] = ATCC19977, M. abscessus, read-out: MIC

Chain of ClpC1 (P9WPC9 whole entry): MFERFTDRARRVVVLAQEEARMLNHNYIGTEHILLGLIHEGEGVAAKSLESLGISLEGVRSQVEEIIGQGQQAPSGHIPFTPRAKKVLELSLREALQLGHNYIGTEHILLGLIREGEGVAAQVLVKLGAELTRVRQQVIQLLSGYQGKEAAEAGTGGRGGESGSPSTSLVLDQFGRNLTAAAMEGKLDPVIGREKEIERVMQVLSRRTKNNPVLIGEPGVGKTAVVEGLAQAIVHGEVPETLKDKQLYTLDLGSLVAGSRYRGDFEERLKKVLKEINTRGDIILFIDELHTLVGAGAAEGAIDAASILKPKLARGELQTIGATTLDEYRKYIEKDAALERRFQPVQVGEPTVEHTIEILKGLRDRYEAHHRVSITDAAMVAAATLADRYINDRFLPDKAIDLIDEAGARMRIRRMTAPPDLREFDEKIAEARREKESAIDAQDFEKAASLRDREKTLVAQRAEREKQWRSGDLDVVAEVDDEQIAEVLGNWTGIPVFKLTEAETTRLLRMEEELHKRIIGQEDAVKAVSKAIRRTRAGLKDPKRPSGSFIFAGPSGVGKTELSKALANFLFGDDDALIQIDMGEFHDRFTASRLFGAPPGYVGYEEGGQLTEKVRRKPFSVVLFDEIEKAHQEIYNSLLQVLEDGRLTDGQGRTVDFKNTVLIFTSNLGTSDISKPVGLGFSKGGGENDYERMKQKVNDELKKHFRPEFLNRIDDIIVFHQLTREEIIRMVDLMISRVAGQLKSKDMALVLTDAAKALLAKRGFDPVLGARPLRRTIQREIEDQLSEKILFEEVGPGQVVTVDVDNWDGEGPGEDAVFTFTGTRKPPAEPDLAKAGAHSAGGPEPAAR
Chain of ClpC1/P1/P2 complex (P9WPC9 whole entry, one chain of several): as the sequence (P9WPC9 whole entry) above

Structure (SMILES)	MIC ([1]; M. marinum, read-out: MIC) [µM]	MIC [2] [µM]	IC50 [3] [µM]	MIC [4] [µM]	MIC [5] [µM]	MIC ([7]; M. avium, read-out: MIC) [µM]	MIC [8, 23] [µM]	IC50 [9] [µM]	MIC ([11]; M. kansasii, read-out: MIC) [µM]	MIC [12] [µM]	MIC [13] [µM]	MIC ([14]; M. chelonae, read-out: MIC) [µM]	further results
CO[C@H](c1ccccc1)[C@@H]1NC(=O)[C@H](C)NC(=O)[C@H](C[C@@H](C)CO)N(C)C(=O)[C@H]([C@H](O)c2cn(C(C)(C)[C@@H]3CO3)c3ccccc23)NC(=O)[C@H]([C@H](C)C=C(C)C)NC(=O)[C@H](CC(C)C)N(C)C(=O)[C@H](C(C)C)NC1=O (stereo in doubt) [CYMA, cyclomarin A]	0.58 (≈ 0.605 µg/mL)	< 0.02	19	> 10	> 10	4.85 (≈ 5.06 µg/mL)	> 5	> 50	1.11 (≈ 1.16 µg/mL)	0.012 to 0.079 (≈ 0.0125 to 0.0824 µg/mL)	0.094 (≈ 0.0981 µg/mL)	> 5	MIC [6]: > 10 µM; MIC ([10]; M. smegmatis, read-out: MIC): 1.6 µM (≈ 1.67 µg/mL)
CC1(C)S[C@@H]2[C@H](NC(=O)[C@H](N)c3ccccc3)C(=O)N2[C@H]1C(=O)O [AMP, ampicillin]				16 (≈ 5.59 µg/mL)	6.1 (≈ 2.13 µg/mL)								
COc1nc2ccc(Br)cc2cc1[C@@H](c1ccccc1)[C@@](O)(CCN(C)C)c1cccc2ccccc12 [BDQ, bedaquiline]	0.29 (≈ 0.161 µg/mL)	0.1 (≈ 0.0556 µg/mL)	20			0.049 (≈ 0.0272 µg/mL)	0.96 (≈ 0.533 µg/mL)	27	0.029 (≈ 0.0161 µg/mL)	0.017 to 0.11 (≈ 0.00944 to 0.0611 µg/mL)	0.13 (≈ 0.0722 µg/mL)	0.46 (≈ 0.256 µg/mL)	
CCC(C)C(C(=O)NC1C(=O)N(C)C(C(C)O)C(=O)NC(C(C)C)C(=O)N(C)C(CC(C)C)C(=O)NC(C(C)C)C(=O)N(C)C(C(C)C)C(=O)N(C)C(Cc2c[nH]c3cccc(OC)c23)C(=O)NC(C(C)C)C(=O)NC(C(O)c2ccccc2)C(=O)NC(C(C)C)C(=O)OC1C)N(C)C(=O)C(NC(=O)C(C(C)C)N(C)C)C(C)C (centres unmarked) [ECU, ecumicin] (ξNMe2Val-V[NMeI]T[NMeT]V[NMeL]V[NMeV][NMeTrp(4-OMe)]V[X1]V; ester 3-C; configuration not given here)	0.95 (≈ 1.52 µg/mL)	< 0.2		> 32	> 32	0.35 (≈ 0.56 µg/mL)	> 63		4 (≈ 6.4 µg/mL)	0.13 to 0.38 (≈ 0.208 to 0.608 µg/mL)	0.16 (≈ 0.256 µg/mL)	0.97 (≈ 1.55 µg/mL)	effect on proteolytic activity of ClpC1/P1/P2 (FITC-casein degradation) [15]: inhibits ClpC1 proteolysis; MBC [16]: 0.34 µM (≈ 0.544 µg/mL); terminal half-life [17]: 3 h; MIC [6]: > 32 µM; MBC [18]: 1.5 µM (≈ 2.4 µg/mL); MIC ([10]; M. smegmatis, read-out: MIC): 1.7 µM (≈ 2.72 µg/mL); effect on ClpC1 ATPase activity [19]: stimulates the ATPase activity
CNC(C)C1CCC(N)C(OC2C(N)CC(N)C(OC3OCC(C)(O)C(NC)C3O)C2O)O1 (centres unmarked) [GEN, gentamicin]				0.23 (≈ 0.11 µg/mL)	0.33 (≈ 0.158 µg/mL)								
CO[C@H]1/C=C/O[C@@]2(C)Oc3c(C)c(O)c4c(O)c(c(/C=N/N5CCN(C)CC5)c(O)c4c3C2=O)NC(=O)/C(C)=C\C=C\[C@H](C)[C@H](O)[C@@H](C)[C@@H](O)[C@@H](C)[C@H](OC(C)=O)[C@@H]1C [RIF, rifampin]		< 0.02	95					120		0.01 to 0.027 (≈ 0.00823 to 0.0222 µg/mL)	0.04 (≈ 0.0329 µg/mL)		MIC [1]: 0.05 µM (≈ 0.0411 µg/mL); MIC [7]: 0.16 µM (≈ 0.132 µg/mL); MIC ([8]; ATCC19977): > 4 µM; MIC [10]: > 120 µM; MIC [11]: 0.15 µM (≈ 0.123 µg/mL); MIC [14]: > 4 µM
CC(=O)O[C@H]1C(=O)[C@@]2(C)[C@H]([C@H](OC(=O)c3ccccc3)[C@]3(O)C[C@H](OC(=O)[C@H](O)[C@@H](NC(=O)c4ccccc4)c4ccccc4)C(C)=C1C3(C)C)[C@]1(OC(C)=O)CO[C@@H]1C[C@@H]2O [paclitaxel]													IC50 [20]: 0.0015 µM; IC50 [21]: 0.17 µM; IC50 [22]: 0.0001 µM
